For assay [1], the system named is I3R. Nature of the assay: I3R model: insulin release from human islets. Format: cell-based. As to the method:
(§1) Islets of Langerhans from male Wistar rats were isolated by collagenase digestion in a medium of bicarbonate-buffered physiological saline solution containing 4 mM D-glucose and 1 mM CaCl2. Islets were selected under a binocular dissecting microscope and were used within two hours of isolation. Islets from humans were isolated from heart-beating cadaver organ donors by collagenase digestion and density gradient centrifugation (Chan, S. L. F., et al., 1997, Brit. J. Pharmacol. 120:926-932).
Incubations were done in 96-well plates. Isolated islets were incubated in 100 μl buffer solution supplemented with bovine serum albumin in humidified air: CO2 (95:5%) at 37° C. in the presence of test agents. To eliminate any potential alpha-2 responses, yohimbine (10 μM), a potent alpha2-adrenergic blocker, was included in all incubations. After 60 min incubation, samples of medium were removed for measurement of insulin release by radioimmunoassay using anti-bovine insulin antiserum. […]
I3R model: Insulin release from pancreas (Eglen, R. M., Hudson, A. L., Kendall, D. A., Nutt, D. J., Morgan, N. G., Wilson, V. G. & Dillon, M. P. (1998) TIPS 19, 381-390; Chan, S. L. F. (1998) Gen. Pharmacol. 31, 525-529; Morgan, N. G. (1999) Exp. Opin. Invest. Drugs 8, 575-584). […] After incubation, insulin levels in supernatants were analyzed by RIA. […]

Assay [2] relates to I3R. Briefly: I3R model: insulin release from rat islets of Langerhans. Format: cell-based. As to the method: as §1
Incubations were done in 96-well plates. Isolated islets were incubated in 100 μl buffer solution supplemented with bovine serum albumin in humidified air: CO2 (95:5%) at 37° C. in the presence of test agents. To eliminate any potential alpha-2 responses, yohimbine (10 μM), a potent alpha2-adrenergic blocker, was included in all incubations. After 60 min incubation, samples of medium were removed for measurement of insulin release by radioimmunoassay using anti-bovine insulin antiserum. Presence of insulin in the test media were compared to controls; positive differences represented amounts of insulin released. In reversal experiments, diazoxide (e.g., 200 μM) was pre-incubated to block glucose-induced insulin release. In these studies, test reagents were used to determine if they were capable of overcoming diazoxide's inhibitory effects on K+ ATP channels, a well known action of imidazoline secretagogues in islet cells. For example, efaroxan (an inhibitor of I-1 responses in adrenal medullary cells) is a well known I-3 agonist, i.e., it stimulates (at 100 μM) release of insulin and overcomes diazoxide inhibition thus illustrating again the dictomy between I1 and I3 receptor subtypes.
I3R model: Insulin release from pancreas (Eglen, R. M., Hudson, A. L., Kendall, D. A., Nutt, D. J., Morgan, N. G., Wilson, V. G. & Dillon, M. P. (1998) TIPS 19, 381-390; Chan, S. L. F. (1998) Gen. Pharmacol. 31, 525-529; Morgan, N. G. (1999) Exp. Opin. Invest. Drugs 8, 575-584). Islets of Langerhans from male Wistar rats or human pancreata were isolated by collagenase digestion. Hand-picked islets were incubated in NaHCO3-buffered saline containing 1 mM CaCl2, 1 mg/ml BSA and test reagents. After incubation, insulin levels in supernatants were analyzed by RIA. The I3-blocker, KU-14R, served to verify I3R function.

The subject of another assay is Imidazoline I Sites. Nature of the assay: [125I]p-iodoclonidine competition binding to bovine RVLM membranes, imidazoline sites. The following applies: for Ki: read-out: Ki, Imidazoline I Sites. The text has this: Whole bovine brains and adrenal glands were obtained from a local slaughterhouse. Brains were immediately placed on a chilled glass plate, washed with ice-cold Krebs'-Henseleit buffer, and dissected. The rostral medulla was isolated by transecting the brainstem rostrally at the posterior margin of the trapezoid body and caudally 1 cm caudal to the obex. The pia-arachnoid was removed, and the lateral medulla was isolated by a sagittal section through the lateral margin of the pyramids, and then bisected. The ventral half was defined as the ventrolateral medulla (VLM). Brain samples were transported on ice to the laboratory and processed immediately.
Fresh bovine VLM was homogenized by using a polytron (Tekmar Tissuemizer, setting 80 for 2×15 sec) in 20 volumes of ice-cold Hepes-buffered isotonic sucrose (pH brought to 7.4 with Tris base) containing the protease inhibitors (1,10)-phenanthroline (100 μM) and phenylmethylsulfonyl fluoride (50 μM) in order to inhibit degradation of receptor protein. Bovine adrenomedullary cells were homogenized in 15 ml Hepes-buffered isotonic sucrose by 10 strokes in a glass-glass hand-held homogenizer. All three homogenates were centrifuged at 1000×g for 5 min at 4° C. to remove nuclei and debris. The pellets (P1) were resuspended in 20 ml of homogenization buffer, and centrifuged again at 1000×g for 5 min. The combined supernatants were centrifuged at 48,000 g for 18 min at 4° C., and the resulting P2 pellet was resuspended in 10 to 25 volumes of 50 mM Tris-HCl buffer (pH 7.7) containing 5 mM EDTA. After recentrifugation at 48,000 g for 18 min, the resulting membrane pellet was resuspended in Tris-HCl containing 25 mM NaCl, preincubated for 30 min at 25° C., chilled on ice, centrifuged again, resuspended a final time in Tris-HCl alone, centrifuged, flash-frozen, and stored at −70° C. for up to three months.
Radioligand binding assays with [^3H]clonidine or [^125I]p-iodoclonidine for determination of specific membrane binding to VLM and renal medulla imidazoline sites and α2-adrenergic receptors were performed by a modification of methods previously described (Ernsberger P. et al., 1997, J. Hypertension 1997, 15:S9-S23). Membranes were slowly thawed and resuspended in Tris-Hepes buffer (5.0 mM; pH 7.7 at 25° C., containing 0.5 mM EDTA, 0.5 mM EGTA, and 0.5 mM MgCl2) at a concentration of 1 mg protein/ml for the VLM, 4 mg protein/ml for the renal medulla, and 0.2 mg protein/ml for adrenomedullary cells. Assays were conducted in a total volume of 250 μl in polypropylene 96-well plates (Beckman Macrowell), and each well contained 125 μl membrane suspension, 25 μl radioligand, and 100 μl drug or vehicle. Incubations were initiated by the addition of membrane and were carried out for 30 min at 22° C. Nonspecific binding was defined in the presence of 10 μM BDF-6143, an imidazoline adrenergic agent. Specific α2-adrenergic binding was defined by inhibition with (−)epinephrine (0.1 mM). In experiments using catecholamines, all samples contained ascorbic acid in a final concentration of 0.001%. Incubations were terminated by vacuum filtration using a cell harvester (Brandel) equipped with Teflon tubing to reduce absorption of the radioligand over glass fiber filters (Schleicher & Schuell #34) which were preincubated for 4 h at 4° C. in 0.03% polyethylimine to reduce nonspecific binding to the filter. The filters were washed four times with 5 ml ice-cold Tris-HCl, placed in scintillation vials, covered with 4 ml scintillation cocktail (BioSafe II, Research Products International), and counted at 50% efficiency (Beckman LS5801). Protein was assayed by the bicinchoninic acid method.
Data were obtained as dpm and transferred to the Equilibrium Binding Data Analysis (EBDA) program for initial processing; 4 to 10 experiments were analyzed simultaneously by using the LIGAND program for nonlinear curve-fitting. Protein assay data were also analyzed by nonlinear curve-fitting.
Competition binding assays. […]

For the next assay, the system named is β-TC3 cells. Nature of the assay: Insulin release from insulinoma cells in culture. Format: cell-based.

Molecules are shown by their SMILES. Several values for one entry are separate records, joined by “and”; a condition that tells them apart may be missing. Equal values may be shown once. Entries after “also recorded” stand apart in the source; their conditions may differ. Read-outs that look alike come from different tables or passages of the source.

In general, EC50 refers to the midpoint of the concentration-response curve. Low values mean higher potency in that assay, high ones lower potency in that assay. What is called Ki is a measure of affinity in units of concentration, obtained from inhibition or displacement. With `O=C(O)Cc1cn(C2OC(COP(=O)(O)O)C(O)C2O)cn1` [IAA-RP, 1-(β-D-ribofuranosyl)-imidazole-4-acetic acid 5′ phosphate], the EC50 in the assay with I3R [1] was roughly 3 nM; with I3R [2] (rat islets, glucose 20 mM and diazoxide 200 μM), 30 to 50 nM. Further, the “reversal of the inhibitory action of diazoxide on glucose-induced insulin release” value was “overcame inhibitory effects of the KATP-channel agonist, diazoxide” with I3R [2] and “able to reverse the inhibitory action of diazoxide” in the assay with I3R [2] (listed as tele-linked IAA-RP). In addition, the “stimulation of insulin release (in words)” value in the assay on I3R [2] (rat islets) is recorded as “potent stimulants of insulin release; also recorded: increased insulin secretion from islets; also recorded: far more potent than efaroxan”. The “affinity of high-affinity RVLM sites relative to low-affinity RVLM sites and adrenal I1R sites” value in the assay on Imidazoline I Sites is recorded as greater than 100 fold. For the same compound, the “fold greater affinity than IAA-R in displacing [125I]p-iodoclonidine” value with Imidazoline I Sites is recorded as greater than 100 fold. For the same compound, the “Percent Sites, Imidazoline I Sites (high affinity component)” value is 71% and 71±5% in the assay on Imidazoline I Sites (Control (no masking ligand)); 86% and 86±4% in the assay with Imidazoline I Sites (With epinephrine (α2Rs masked)). The Ki is 160 ± 38 nM at Imidazoline I Sites (Control (no masking ligand)) and 100 ± 19 nM on Imidazoline I Sites (With epinephrine (α2Rs masked)). Besides, the “selectivity for I-Rs over α2-sites” value in the assay with Imidazoline I Sites (RVLM) was greater than 1000 fold. In addition, the “stimulation of insulin release” value in the assay with β-TC3 cells is recorded as “capable of stimulating insulin release”.

Values taken from US7385039B2, “Methods and compositions for regulating imidazoline receptors” (priority 1998, dated 2008).
